ChEMBL document CHEMBL4651402, “Screening of ~5500 FDA-approved drugs and clinical candidates for anti-SARS-CoV-2 activity” (2021)
Counter-ions that a name gives are not always drawn.

Test system: SARS-CoV-2
Experiment: microbe, parasite or virus in culture
Conditions: Severe acute respiratory syndrome coronavirus 2, Vero C1008, 48 h

Row | SMILES | IC50 [µM] | IC50 (read-out: pIC50 (converted)) [µM]
1 | CCN1C[C@]2(OC(=O)c3ccccc3NC(C)=O)CC[C@H](OC)[C@@]34[C@@H]2C[C@@H]([C@@H]13)[C@@]1(O)C[C@H](OC)[C@H]2C[C@@H]4[C@]1(O)[C@H]2OC | > 20 | > 20
2 | Nc1ccc(C(=O)O)cc1 [AMINOBENZOIC ACID] | > 20 | > 20
3 | Cc1sc2c(c1C)C(c1ccc(Cl)cc1)=N[C@@H](CC(=O)Nc1ccc(O)cc1)c1nnc(C)n1-2 [BIRABRESIB] | > 20 | > 20
4 | C=CCc1cc(OC)c2c(c1OC)OCO2 [APIOL] | > 20 | > 20
5 | CC(CC(C(N)=O)(c1ccccc1)c1ccccc1)N(C)C (stereo not given) [AMINOPENTAMIDE SULFATE] | > 20 | > 20
6 | C=C1c2c(Cl)ccc(O)c2C(=O)C2=C(O)[C@]3(O)C(=O)C(C(N)=O)=C(O)[C@@H](N(C)C)[C@@H]3[C@@H](O)[C@H]12 [MECLOCYCLINE] | > 20 | > 20
7 | CCc1cc2c(cc1N1CCC(N3CCOCC3)CC1)C(C)(C)c1[nH]c3cc(C#N)ccc3c1C2=O [ALECTINIB] | > 20 | > 20
8 | CC(C)C(=O)Nc1ccc([N+](=O)O)c(C(F)(F)F)c1 | > 20 | > 20
9 | COCCOc1c(OC)cc(Cc2cnc(N)nc2N)cc1OC [TETROXOPRIM] | > 20 | > 20
10 | Cn1nc(-c2cccc(F)c2)n(C)c1=S [SURITOZOLE] | > 20 | > 20
11 | COC(c1ccccc1)(c1ccccc1)[C@H](Oc1nc(C)cc(C)n1)C(=O)O [AMBRISENTAN] | > 20 | > 20
12 | C[C@@H](NCCCCc1ccccc1)[C@@H](O)c1ccc2c(c1)CCS2 | > 20 | > 20
13 | CC[n+]1c(-c2ccccc2)c2cc(N)ccc2c2ccc(N)cc21 [HOMIDIUM] | > 20 | > 20
14 | COc1cccc2cc(-c3nc([C@H]4CC[C@H](C(=O)O)CC4)n4ncnc(N)c34)[nH]c12 [OSI-027] | > 20 | > 20
15 | O=C(Nc1ccc(C(=O)O)c(O)c1)c1ccccc1 [BENZOYLPAS] | > 20 | > 20
16 | CC(C)(Sc1cc(C(C)(C)C)c(O)c(C(C)(C)C)c1)Sc1cc(C(C)(C)C)c(O)c(C(C)(C)C)c1 [PROBUCOL] | > 20 | > 20
17 | C/C=C1\C(=O)C[C@H]2[C@@H]3CCC4=CC(=O)CC[C@]4(C)[C@H]3CC[C@]12C [GUGGULSTERONE] | > 20 | > 20
18 | CC(C)C(=O)OC[C@H]1O[C@@H](n2ccc(N)nc2=O)[C@](C)(F)[C@@H]1OC(=O)C(C)C [MERICITABINE] | > 20 | > 20
19 | C[C@H]1C(O)O[C@@H]2O[C@@]3(C)CC[C@H]4[C@H](C)CCC1[C@@]24OO3 (stereo not given in full) | > 20 | > 20
20 | CCOc1ccc2c3c1O[C@H]1[C@@H](O)C=C[C@H]4[C@@H](C2)N(C)CC[C@@]341 [ETHYLMORPHINE] | > 20 | > 20
21 | Nc1nc(Cl)nc2c1ncn2[C@@H]1C[C@H](O)[C@@H](CO)O1 | > 20 | > 20
22 | CC/C=C\C/C=C\C/C=C\C/C=C\C/C=C\C/C=C\CCC(=O)O [DOCONEXENT] | > 20 | > 20
23 | C=C1[C@H](CO)[C@@H](O)C[C@@H]1n1cnc2c(=O)[nH]c(N)nc21 | > 20 | > 20
24 | Nc1ncnc2c1ccn2[C@@H]1O[C@H](CO)[C@@H](O)[C@H]1O [TUBERCIDIN] | > 20 | > 20

Row | SMILES | IC50 [µM] | IC50 (read-out: pIC50 (converted)) [µM]
25 | COc1cc(C(=O)N2CCOCC2)cc(OC)c1OC [TRIMETOZINE] | > 20 | > 20
26 | O=C(O)[C@H]1/C(=C/CO)O[C@@H]2CC(=O)N21 [CLAVULANIC ACID] | > 20 | > 20
27 | CC(CNC(=O)c1cccnc1)NC(=O)c1cccnc1 (stereo not given) | > 20 | > 20
28 | NC[C@H]1O[C@H](O[C@H]2[C@H](O)[C@@H](O)[C@H](N)C[C@@H]2N)[C@H](N)[C@@H](O)[C@@H]1O [NEAMINE] | > 20 | > 20
29 | c1ccc2c(c1)CC[C@H](CNCCCNC1=NCCCN1)O2 | > 20 | > 20
30 | CCCC(C)C1(CC)C(=O)NC(=O)NC1=O (stereo not given) [PENTOBARBITAL] | > 20 | > 20
31 | O[C@H]1[C@H]2c3cc4c(cc3CN3CCC(=C[C@@H]1O)[C@H]23)OCO4 [LYCORINE] | > 20 | > 20
32 | O=C1c2cccc(O)c2C(=O)c2c(O)cccc21 [DANTHRON] | > 20 | > 20
33 | OC(CCCN1CCN(c2ncc(F)cn2)CC1)c1ccc(F)cc1 (stereo not given) [BMY-14802] | > 20 | > 20
34 | CCc1cccc(CC)c1NC(=O)CN(CC(=O)O)CC(=O)O [ETIFENIN] | > 20 | > 20
35 | C=C1[C@@H](O)C23C[C@@H]1[C@@H](O)C[C@H]2[C@@]12[C@@H]4[C@H]3C[C@@H]1[C@@](C)(CC[C@@H]2O)CN4CC | > 20 | > 20
36 | O=C(O)Cc1c[nH]cn1 [IMIDAZOLE ACETIC ACID] | > 20 | > 20
37 | COc1ccc(CCC(C)NCC(O)c2ccc(O)c([S+](C)[O-])c2)cc1 (stereo not given) [SULFINALOL] | > 20 | > 20
38 | C=CCC1(C(C)C)C(=O)NC(=O)NC1=O [APROBARBITAL] | > 20 | > 20
39 | NCCCC[C@H](OP(=O)(O)CCCCc1ccccc1)C(=O)N1CCC[C@H]1C(=O)O [CERONAPRIL] | > 20 | > 20
40 | CC(C)C(=O)OC[C@@]1(N=[N+]=[N-])O[C@@H](n2ccc(N)nc2=O)[C@H](OC(=O)C(C)C)[C@@H]1OC(=O)C(C)C [BALAPIRAVIR] | > 20 | > 20
41 | CC12CCC(O)CC1CCC1[C@@H]2CC(O)C2(C)C(C3=CC(=O)OC3)CCC12O (stereo not given in full) | > 20 | > 20
42 | O=C(O)c1cc2cc(F)ccc2[nH]1 [5-FLUOROINDOLE-2-CARBOXYLIC ACID] | > 20 | > 20
43 | CC(C(=O)O)c1ccc2c(c1)Cc1ccccc1-2 (stereo not given) [CICLOPROFEN] | > 20 | > 20
44 | CC[C@H]1OC(=O)[C@H](C)[C@@H](O[C@H]2C[C@@](C)(OC)[C@@H](O)[C@H](C)O2)[C@H](C)[C@@H](O[C@@H]2O[C@H](C)C[C@H](N(C)C)[C@H]2OC(C)=O)[C@](C)(O)C[C@@H](C)C(=O)[C@H](C)[C@@H](O)[C@]1(C)O [2'-O-ACETYLERYTHROMYCIN A] | > 20 | > 20
45 | COc1cc(C(=O)O)cc(OC)c1O [SYRINGIC ACID] | > 20 | > 20
46 | CSCC[C@H](NC(=O)[C@H](Cc1c[nH]c2ccccc12)NC(=O)CCNC(=O)OC(C)(C)C)C(=O)N[C@@H](CC(=O)O)C(=O)N[C@@H](Cc1ccccc1)C(N)=O [PENTAGASTRIN] | > 20 | > 20
47 | CCOc1ccc(NC(=S)Nc2ccc(OCC)cc2)cc1 [ETOCARLIDE] | > 20 | > 20
48 | COc1cc(Nc2ncc(F)c(Nc3ccc4c(n3)N(COP(=O)(O)O)C(=O)C(C)(C)O4)n2)cc(OC)c1OC [FOSTAMATINIB] | > 20 | > 20

Row | SMILES | IC50 [µM] | IC50 (read-out: pIC50 (converted)) [µM]
49 | CC(=O)NS(=O)(=O)c1ccc(N)cc1 [SULFACETAMIDE] | > 20 | > 20
50 | N[C@@H]1CONC1=O [CYCLOSERINE] | > 20 | > 20
51 | CC(C)(C)C(=O)Oc1ccc(S(=O)(=O)Nc2ccccc2C(=O)NCC(=O)O)cc1 | > 20 | > 20
52 | CC(=O)OC(C)C(=O)OCC[N+](C)(C)C (stereo not given) [ACLATONIUM] | > 20 | > 20
53 | CCOC(=O)[C@]1(c2ccccc2)CCC=C[C@H]1N(C)C [DEXTILIDINE] | > 20 | > 20
54 | CC(C)NCC(O)COc1cccc2[nH]ccc12 (stereo not given) [PINDOLOL] | > 20 | > 20
55 | COc1cccc([C@H]2O[C@H](CC(=O)N3CCC(CC(=O)O)CC3)C(=O)N(CC(C)(C)COC(C)=O)c3ccc(Cl)cc32)c1OC [LAPAQUISTAT ACETATE] | > 20 | > 20
56 | CC(C)n1c(/C=C/[C@@H](O)C[C@@H](O)CC(=O)O)c(-c2ccc(F)cc2)c2ccccc21.CC(C)n1c(/C=C/[C@H](O)C[C@H](O)CC(=O)O)c(-c2ccc(F)cc2)c2ccccc21 | > 20 | > 20
57 | CS(=O)(=O)c1ccc(C(=O)Nc2ccc(Cl)c(-c3ccccn3)c2)c(Cl)c1 [VISMODEGIB] | > 20 | > 20
58 | O=C(O)c1ccc2c(c1)OCO2 [PIPERONYLIC ACID] | > 20 | > 20
59 | O=C(O)CCCNC(=O)c1cccnc1 | > 20 | > 20
60 | CC(=O)Nc1ccc(OCC(O)CNC(C)C)cc1 (stereo not given) [PRACTOLOL] | > 20 | > 20
61 | Cc1cccc(N2CC(CO)OC2=O)c1 (stereo not given) [TOLOXATONE] | > 20 | > 20
62 | COCC(=O)Nc1c(I)c(C(=O)NCC(O)CO)c(I)c(C(=O)N(C)CC(O)CO)c1I (stereo not given) [IOPROMIDE] | > 20 | > 20
63 | C[C@@H]1CN(Cc2ccc(F)cc2)CCN1C(=O)COc1ccc(Cl)cc1NC(N)=O [BX 471 FREE BASE] | > 20 | > 20
64 | NS(=O)(=O)c1cc(C(=O)O)c(NCc2ccco2)cc1Cl [FUROSEMIDE] | > 20 | > 20
65 | O=C(O)C(=O)O [OXALIC ACID] | > 20 | > 20
66 | CC1O[C@@H](OC2C(O)[C@H](OCCc3ccc(O)c(O)c3)OC(CO)[C@H]2OC(=O)/C=C/c2ccc(O)c(O)c2)C(O)C(O)[C@H]1O (stereo not given in full) | > 20 | > 20
67 | CCOc1ccc(/N=C(\C)Nc2ccc(OCC)cc2)cc1 [PHENACAINE] | > 20 | > 20
68 | O=C(c1ccc2nonc2c1)N1CCOCC1 [CX-717] | > 20 | > 20
69 | NS(=O)(=O)c1cc2c(cc1Cl)NC(C1CC3C=CC1C3)NS2(=O)=O (stereo not given) [CYCLOTHIAZIDE] | > 20 | > 20
70 | Cn1c(NCCN(CCO)CCCc2ccc([N+](=O)[O-])cc2)cc(=O)n(C)c1=O [NIFEKALANT] | > 20 | > 20
